What follows are molecules tested on HBV viral production from HepAD38 cells (assay: Activity of test compounds on viral production from HepAD38 cells (viral load by qPCR of HBV core sequence in supernatant)). Details: Hepatitis B virus, 120 h, 5 days incubation, HBV DNA in supernatant by qPCR, top concentration 10 μM, read-out: Viral Load EC50 Activity range.
Format: cell-based
Method in brief: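 EC50 and CC50 come from four-parameter fits of supernatant viral load and CellTiter-Glo viability, respectively. Viral load was measured by core-region TaqMan qPCR against HBV DNA standards and compared with DMSO controls. Tet-free HepAD38 cells (50,000/well, 2% FBS) were exposed to compound, highest 10 μM, for 5 days at 37° C.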
`CN1[C@@H](C(=O)Nc2ccc(F)c(Cl)c2)C[C@@H](c2ccc(-c3ccnn3C)s2)NS1(=O)=O` [HBV-CSU-271-ISO-II, Cis-N-(3-chloro-4-fluorophenyl)-2-methyl-5-(5-(1-methyl-1H-pyrazol-5-yl)thiophen-2-yl)-1,2,6-thiadiazinane-3-carboxamide 1,1-dioxide] was tested, and the EC50 was 1 to 5 µM.
Work on `CCc1sc(C2CC(C(=O)Nc3ccc(F)c(Cl)c3)N(C)S(=O)(=O)N2)cc1Br` (centres unmarked) [HBV-CSU-334, 5-(4-bromo-5-ethylthiophen-2-yl)-N-(3-chloro-4-fluorophenyl)-2-methyl-1,2,6-thiadiazinane-3-carboxamide 1,1-dioxide] yielded an EC50 of less than 1 µM.
For `COc1ccc(-c2cnc(C3CC(C(=O)Nc4ccc(F)c(Cl)c4)N(C)S(=O)(=O)N3)s2)cc1` (racemic) [HBV-CSU-250, Cis-N-(3-Chloro-4-fluorophenyl)-5-(5-(4-methoxyphenyl)thiazol-2-yl)-2-methyl-1,2,6-thiadiazinane-3-carboxamide 1,1-dioxide], the EC50 was less than 1 µM.
Molecule `CN1[C@@H](C(=O)Nc2ccc(F)c(Cl)c2)C[C@@H](c2ncc(-c3c[nH]cn3)s2)NS1(=O)=O` (stereo in doubt) [HBV-CSU-333-ISO-II, 5-(5-(1H-imidazol-4-yl)thiazol-2-yl)-N-(3-chloro-4-fluorophenyl)-2-methyl-1,2,6-thiadiazinane-3-carboxamide 1,1-dioxide] has an EC50 of 1 to 5 µM.
Molecule `CN1[C@H](C(=O)Nc2ccc(F)c(Cl)c2)C[C@H](c2cc(Cc3ccccc3)cs2)NS1(=O)=O` [HBV-CSU-149-ISO-I, Cis-(4-benzylthiophen-2-yl)-N-(3-chloro-4-fluorophenyl)-2-methyl-1,2,6-thiadiazinane-3-carboxamide 1,1-dioxide] has an EC50 of less than 1 µM.
Molecule `CN1C(C(=O)Nc2ccc(F)c(Cl)c2)CC(c2ncc(-c3ccnn3C)s2)NS1(=O)=O` (racemic) [HBV-CSU-281, Cis-N-(3-Chloro-4-fluorophenyl)-2-methyl-5-(5-(1-methyl-1H-pyrazol-5-yl)thiazol-2-yl)-1,2,6-thiadiazinane-3-carboxamide 1,1-dioxide] has an EC50 of less than 1 µM.
`CN1C(C(=O)Nc2ccc(F)c(Cl)c2)CC(c2ncc(Br)s2)NS1(=O)=O` (racemic) [HBV-CSU-122, Cis-5-(5-bromothiazol-2-yl)-N-(3-chloro-4-fluorophenyl)-2-methyl-1,2,6-thiadiazinane-3-carboxamide 1,1-dioxide] showed an EC50 of less than 1 µM.
Molecule `CCN(CC)CCCN1[C@@H](C(=O)Nc2ccc(F)c(Cl)c2)C[C@@H](c2nccs2)NS1(=O)=O` [HBV-CSU-101-ISO-I, Cis-N-(3-Chloro-4-fluorophenyl)-2-(3-(diethylamino)propyl)-5-(thiazol-2-yl)-1,2,6-thiadiazinane-3-carboxamide 1,1-dioxide] has an EC50 greater than 5 µM.
With `CN1[C@@H](C(=O)Nc2ccc(F)c(Cl)c2)C[C@@H](c2cc(-c3cnn(C(F)(F)F)c3)cs2)NS1(=O)=O` (relative stereo) [HBV-CSU-325-ISO-II, Cis-N-(3-Chloro-4-fluorophenyl)-2-methyl-5-(4-(1-(trifluoromethyl)-1H-pyrazol-4-yl)thiophen-2-yl)-1,2,6-thiadiazinane-3-carboxamide 1,1-dioxide] the EC50 was greater than 5 µM.
`CN1[C@H](C(=O)Nc2ccc(F)c(Cl)c2)C[C@H](c2ccc(F)c(F)c2)NS1(=O)=O` [HBV-CSU-230-ISO-I, Cis-N-(3-Chloro-4-fluorophenyl)-5-(3,4-difluorophenyl)-2-methyl-1,2,6-thiadiazinane-3-carboxamide 1,1-dioxide] showed an EC50 of less than 1 µM.
With `COC(C)(C)CCN1[C@H](C(=O)Nc2ccc(F)c(Cl)c2)C[C@H](c2nccs2)NS1(=O)=O` [HBV-CSU-083-ISO-II, Cis-N-(3-Chloro-4-fluorophenyl)-2-(3-methoxy-3-methylbutyl)-5-(thiazol-2-yl)-1,2,6-thiadiazinane-3-carboxamide 1,1-dioxide] the EC50 was greater than 5 µM.
Work on `CN1[C@H](C(=O)Nc2ccc(F)c(Cl)c2)C[C@H](c2ccc(-c3cncn3C)s2)NS1(=O)=O` [HBV-CSU-267-ISO-I, Cis-N-(3-Chloro-4-fluorophenyl)-2-methyl-5-(5-(1-methyl-1H-imidazol-5-yl)thiophen-2-yl)-1,2,6-thiadiazinane-3-carboxamide 1,1-dioxide] yielded an EC50 of less than 1 µM.
Work on `O=C(Nc1ccc(F)c(Cl)c1)C1CC(c2nccs2)NS(=O)(=O)N1CC1CCCO1` (racemic) [HBV-CSU-079-Rac-A, Cis-N-(3-Chloro-4-fluorophenyl)-2-((tetrahydrofuran-2-yl)methyl)-5-(thiazol-2-yl)-1,2,6-thiadiazinane-3-carboxamide 1,1-dioxide] yielded an EC50 of less than 1 µM.
`CN1C(C(=O)Nc2ccc(F)c(Cl)c2)CC(c2ccns2)NS1(=O)=O` (stereo not drawn) [HBV-CSU-057, Cis-N-(3-chloro-4-fluorophenyl)-5-(isothiazol-5-yl)-2-methyl-1,2,6-thiadiazinane-3-carboxamide 1,1-dioxide] gave an EC50 of less than 1 µM.
`CN1C(C(=O)Nc2ccc(F)c(Cl)c2)CC(c2ncc(-c3cccnc3)s2)NS1(=O)=O` (racemic) [HBV-CSU-175, Cis-N-(3-Chloro-4-fluorophenyl)-2-methyl-5-(5-(pyridin-3-yl)thiazol-2-yl)-1,2,6-thiadiazinane-3-carboxamide 1,1-dioxide] was tested, and the EC50 was less than 1 µM.
With `CN1[C@@H](C(=O)Nc2ccc(F)c(Cl)c2)C[C@@H](c2ccc(-c3cnn(C(F)(F)F)c3)s2)NS1(=O)=O` [HBV-CSU-321-ISO-II, Cis-N-(3-Chloro-4-fluorophenyl)-2-methyl-5-(5-(1-(trifluoromethyl)-1H-pyrazol-4-yl)thiophen-2-yl)-1,2,6-thiadiazinane-3-carboxamide 1,1-dioxide] the EC50 was greater than 5 µM.
Work on `CN1C(C(=O)Nc2ccc(F)c(Cl)c2)CC(c2ccc(-c3ccnn3C)s2)NS1(=O)=O` (racemic) [HBV-CSU-271, Cis-N-(3-chloro-4-fluorophenyl)-2-methyl-5-(5-(1-methyl-1H-pyrazol-5-yl)thiophen-2-yl)-1,2,6-thiadiazinane-3-carboxamide 1,1-dioxide] yielded an EC50 of less than 1 µM.
In the case of `CN1C(C(=O)Nc2ccc(F)c(Cl)c2)CC(c2ccc(-c3nncn3C)s2)NS1(=O)=O` (racemic) [HBV-CSU-324, Cis-N-(3-Chloro-4-fluorophenyl)-2-methyl-5-(5-(4-methyl-4H-1,2,4-triazol-3-yl)thiophen-2-yl)-1,2,6-thiadiazinane-3-carboxamide 1,1-dioxide], the EC50 is reported as less than 1 µM.
With `CN1[C@H](C(=O)Nc2ccc(F)c(Cl)c2)C[C@H](c2ccc(-c3cncs3)s2)NS1(=O)=O` [HBV-CSU-268-ISO-I, Cis-N-(3-Chloro-4-fluorophenyl)-2-methyl-5-(5-(thiazol-5-yl)thiophen-2-yl)-1,2,6-thiadiazinane-3-carboxamide 1,1-dioxide] the EC50 was less than 1 µM.
`Cc1csc([C@@H]2C[C@H](C(=O)Nc3ccc(F)c(Cl)c3)N(C)S(=O)(=O)N2)c1` [HBV-CSU-147-ISO-II, Cis-N-(3-chloro-4-fluorophenyl)-2-methyl-5-(4-methylthiophen-2-yl)-1,2,6-thiadiazinane-3-carboxamide 1,1-dioxide] gave an EC50 greater than 5 µM.
Molecule `CN1[C@@H](C(=O)Nc2ccc(F)c(Cl)c2)C[C@@H](c2ncc(-c3ccn(C)n3)s2)NS1(=O)=O` (stereo in doubt) [HBV-CSU-280-ISO-II, Cis-N-(3-Chloro-4-fluorophenyl)-2-methyl-5-(5-(1-methyl-1H-pyrazol-3-yl)thiazol-2-yl)-1,2,6-thiadiazinane-3-carboxamide 1,1-dioxide] has an EC50 of less than 1 µM.
Work on `CN1C(C(=O)Nc2ccc(F)c(Cl)c2)CC(c2cc(-c3cn[nH]c3)cs2)NS1(=O)=O` (centres unmarked) [HBV-CSU-245] yielded an EC50 of less than 1 µM.
In the case of `CN1C(C(=O)Nc2ccc(F)c(Cl)c2)CC(c2cccc(O)c2)NS1(=O)=O` (stereo not drawn) [HBV-CSU-205, Cis-N-(3-chloro-4-fluorophenyl)-5-(3-hydroxyphenyl)-2-methyl-1,2,6-thiadiazinane-3-carboxamide 1,1-dioxide], the EC50 is reported as less than 1 µM.
For `Cc1sc([C@H]2C[C@@H](C(=O)Nc3ccc(F)c(Cl)c3)N(C)S(=O)(=O)N2)cc1-c1cnn(C)c1` [HBV-CSU-304-ISO-I, Cis-N-(3-Chloro-4-fluorophenyl)-2-methyl-5-(5-methyl-4-(1-methyl-1H-pyrazol-4-yl)thiophen-2-yl)-1,2,6-thiadiazinane-3-carboxamide 1,1-dioxide], the EC50 was less than 1 µM.
`CN1C(C(=O)Nc2ccc(F)c(Cl)c2)CC(c2cc(Cl)c(O)c(Cl)c2)NS1(=O)=O` (stereo not drawn) [HBV-CSU-260, Cis-N-(3-Chloro-4-fluorophenyl)-5-(3,5-dichloro-4-hydroxyphenyl)-2-methyl-1,2,6-thiadiazinane-3-carboxamide 1,1-dioxide] showed an EC50 of less than 1 µM.
`CN1[C@H](C(=O)Nc2ccc(F)c(Cl)c2)C[C@H](c2ccc(-c3nncn3C)s2)NS1(=O)=O` [HBV-CSU-324-ISO-I, Cis-N-(3-Chloro-4-fluorophenyl)-2-methyl-5-(5-(4-methyl-4H-1,2,4-triazol-3-yl)thiophen-2-yl)-1,2,6-thiadiazinane-3-carboxamide 1,1-dioxide] was tested, and the EC50 was less than 1 µM.
With `CN1[C@H](C(=O)Nc2ccc(F)c(Cl)c2)C[C@H](c2ncc(-c3cncn3C)s2)NS1(=O)=O` [HBV-CSU-277-ISO-I, Cis-N-(3-Chloro-4-fluorophenyl)-2-methyl-5-(5-(1-methyl-1H-imidazol-5-yl)thiazol-2-yl)-1,2,6-thiadiazinane-3-carboxamide 1,1-dioxide] the EC50 was less than 1 µM.
`COCCN1[C@@H](C(=O)Nc2ccc(F)c(Cl)c2)C[C@@H](c2nccs2)NS1(=O)=O` [HBV-CSU-058-ISO-I, Cis-N-(3-chloro-4-fluorophenyl)-2-(2-methoxyethyl)-5-(thiazol-2-yl)-1,2,6-thiadiazinane-3-carboxamide 1,1-dioxide] was tested, and the EC50 was greater than 5 µM.
`O=C(Nc1ccc(F)c(Cl)c1)[C@@H]1C[C@H](c2nccs2)NS(=O)(=O)N1CCc1c[nH]nn1` [HBV-CSU-092-ISO-I, Cis-2-(2-(1H-1,2,3-Triazol-4-yl)ethyl)-N-(3-chloro-4-fluorophenyl)-5-(thiazol-2-yl)-1,2,6-thiadiazinane-3-carboxamide 1,1-dioxide] was tested, and the EC50 was less than 1 µM.

Source: US11078170B2 (Assembly Biosciences, Inc., priority 2017, dated 2021)
